According to paper PMC10338470, “Phase 1 study of GSK3368715, a type I PRMT inhibitor, in patients with advanced solid tumors” (British Journal of Cancer, 2023):
Where “and” joins values, the source holds several entries; their conditions need not be identical. Identical values can stand only once. Marks after values point to notes of the source that are not given here.

Columns and labels:
[1] = Phase 1 safety: adverse events, dose-limiting toxicities, thromboembolic events (NCI-CTCAE v5.0); type: in vivo, human
Method: The study was approved by the ethics committee at every participating institution and was conducted according to the recommendations of Good Clinical Practice and the Declaration of Helsinki. All patients provided written informed consent to participate in the study.
Part 1 of this study included a dose-escalation cohort to assess the incidence of dose-limiting toxicities (DLTs) and adverse events, and a PK/PD cohort to characterize the PK/PD profile of GSK3368715 (Fig. 1). A food-effect cohort and a second study phase (part 2) to assess the preliminary clinical activity of GSK3368715 were also planned.
For each dosing group in the dose-escalation cohort, GSK3368715 was administered on day 1, no treatment was administered on days 2 and 3 (to characterize single-dose PK), and daily dosing continued thereafter until disease progression, unacceptable toxicity, or withdrawal of consent. Study treatment was dosed at approximately the same time of day (±4 h), with no food for 1 h before and 2 h after each dose.
The study resumed under a protocol amendment with the PK/PD cohort starting at a daily dose of 100 mg, and dose escalation was limited to 50-mg increments. The incidence and frequency of TEEs were added to the DLT criteria (grade 2 TEE requiring systemic anticoagulation or ≥grade 3 TEE) with extended monitoring to 8 weeks or until study discontinuation, whichever occurred first. Further, eligibility criteria were modified to exclude patients at high risk of thrombosis (ie, Khorana score ≥3 or prior medical history of TEE). Patients with a Khorana score of 2 were considered for prophylactic anticoagulation if deemed appropriate by the investigator. Khorana score is a risk assessment model based on clinical and laboratory parameters to classify the risk for chemotherapy-associated venous thromboembolism (Supplemental Table 2).
Adverse events were coded using the standard MedDRA groupings and graded according to NCI-CTCAE version 5.0. Clinical chemistry, urinalysis, and coagulation tests were performed predose on days 1, 8, 15, 22, and weekly thereafter. Tumor imaging occurred every 8 weeks until week 33, and then every 16 weeks thereafter.
The Neuenschwander Continual Reassessment Method dose-escalation design has been previously described. […] Additionally, following the protocol amendment, dose escalations were limited to 50-mg increments.
Adverse events and DLTs were summarized descriptively by dose cohort. Pharmacokinetic parameters of GSK3368715 and its metabolites (GSK3963583 and GSK3983164) were estimated in the PK/PD population (all participants for whom a PK sample was obtained) using a noncompartmental analysis model (WinNonlin version 8.1) and summarized descriptively. Best overall response as per RECIST 1.1 was summarized descriptively by dose cohort. Levels of tumor cell and plasma pharmacodynamic biomarkers were also summarized descriptively.

[2] = Safety margins of starting dose from toxicity studies in dogs; type: in vivo; conditions: 50 mg starting dose
[3] = system: lymphomas; set-up: method as in PMID 31257072; conditions: lymphomas ref [6]; cited from earlier work

For CCOCC1(COCC)CCC(c2[nH]ncc2CN(C)CCNC)CC1 [GSK3368715], the “Grade 3 TEE events” value [1] was 8, the “AE: Anemia” value ([1]; 50 mg (n = 3)) was 1 (33) n (%) and the “AE: Diarrhea” value ([1]; 50 mg (n = 3)) was 1 (33) n (%). For the same molecule, the “AE: Dyspnea” value ([1]; 50 mg (n = 3)) was 1 (33) n (%), the “AE: Fatigue” value ([1]; 50 mg (n = 3)) was 1 (33) n (%) and the “AE: Nausea” value ([1]; 50 mg (n = 3)) was 2 (67) n (%). The “AE: Neutrophil count decreased” value ([1]; 50 mg (n = 3)) was 0 n (%), the “AE: Pulmonary embolism” value ([1]; 50 mg (n = 3)) was 0 n (%) and the “AE: Pyrexia” value ([1]; 50 mg (n = 3)) was 1 (33) n (%). For the same molecule, the “AE: Vomiting” value ([1]; 50 mg (n = 3)) was 2 (67) n (%), the “Any AE (all AEs and all grades)” value ([1]; 50 mg (n = 3)) was 3 (100) n (%) and the “GSK3368715-related Grade 3 AE: Aortic thrombosis” value ([1]; 50 mg (n = 3)) was 0 n (%). For the same molecule, the “GSK3368715-related Grade 3 AE: Atrial fibrillation” value ([1]; 50 mg (n = 3)) was 0 n (%), the “GSK3368715-related Grade 3 AE: Deep vein thrombosis” value ([1]; 50 mg (n = 3)) was 0 n (%) and the “GSK3368715-related Grade 3 AE: Neutrophil count decreased” value ([1]; 50 mg (n = 3)) was 0 n (%). The “GSK3368715-related Grade 4 AE: Lymphocyte count decreased” value ([1]; 50 mg (n = 3)) was 0 n (%), the “GSK3368715-related Grade 4 AE: Platelet count decreased” value ([1]; 50 mg (n = 3)) was 0 n (%) and the “Dose-limiting toxicities (DLTs)” value ([1]; 50 mg dose group) was “no DLTs”. For the same molecule, the “Thromboembolic event grade: Portal vein thrombosis” value ([1]; 50 mg, patient with cholangiocarcinoma) was 2, the “AE: Anemia” value ([1]; 100 mg (n = 16)) was 6 (38)^b n (%) and the “AE: Diarrhea” value ([1]; 100 mg (n = 16)) was 5 (31)^b n (%). For the same molecule, the “AE: Dyspnea” value ([1]; 100 mg (n = 16)) was 2 (13) n (%), the “AE: Fatigue” value ([1]; 100 mg (n = 16)) was 6 (38) n (%) and the “AE: Nausea” value ([1]; 100 mg (n = 16)) was 3 (19) n (%). The “AE: Neutrophil count decreased” value ([1]; 100 mg (n = 16)) was 1 (6)^d,e n (%), the “AE: Pulmonary embolism” value ([1]; 100 mg (n = 16)) was 2 (13)^c n (%) and the “AE: Pyrexia” value ([1]; 100 mg (n = 16)) was 5 (31) n (%). The “AE: Vomiting” value ([1]; 100 mg (n = 16)) was 2 (13) n (%), the “Any AE (all AEs and all grades)” value ([1]; 100 mg (n = 16)) was 15 (94) n (%) and the “GSK3368715-related Grade 3 AE: Aortic thrombosis” value ([1]; 100 mg (n = 16)) was 0 n (%). The “GSK3368715-related Grade 3 AE: Atrial fibrillation” value ([1]; 100 mg (n = 16)) was 0 n (%), the “GSK3368715-related Grade 3 AE: Deep vein thrombosis” value ([1]; 100 mg (n = 16)) was 0 n (%) and the “GSK3368715-related Grade 3 AE: Neutrophil count decreased” value ([1]; 100 mg (n = 16)) was 1 (6)^e n (%). The “GSK3368715-related Grade 4 AE: Lymphocyte count decreased” value ([1]; 100 mg (n = 16)) was 0 n (%), the “GSK3368715-related Grade 4 AE: Platelet count decreased” value ([1]; 100 mg (n = 16)) was 0 n (%) and the “Thromboembolic event grade: Pulmonary embolism” value ([1]; 100 mg, patient with head and neck squamous cell carcinoma, study drug withdrawn) was 2. The “Thromboembolic event grade: Pulmonary embolism” value ([1]; 100 mg, patient with pancreas adenocarcinoma) was 3, the “Grade 5 pulmonary embolism, number” value ([1]; 200 mg) was 1 and the “AE: Anemia” value ([1]; 200 mg (n = 12)) was 2 (17) n (%). For the same molecule, the “AE: Diarrhea” value ([1]; 200 mg (n = 12)) was 1 (8) n (%), the “AE: Dyspnea” value ([1]; 200 mg (n = 12)) was 1 (8) n (%) and the “AE: Fatigue” value ([1]; 200 mg (n = 12)) was 1 (8) n (%). The “AE: Nausea” value ([1]; 200 mg (n = 12)) was 4 (33) n (%), the “AE: Neutrophil count decreased” value ([1]; 200 mg (n = 12)) was 3 (25) n (%) and the “AE: Pyrexia” value ([1]; 200 mg (n = 12)) was 0 n (%). The “AE: Vomiting” value ([1]; 200 mg (n = 12)) was 3 (25) n (%), the “Any AE (all AEs and all grades)” value ([1]; 200 mg (n = 12)) was 12 (100) n (%) and the “GSK3368715-related Grade 3 AE: Aortic thrombosis” value ([1]; 200 mg (n = 12)) was 1 (8)^b,g n (%). For the same molecule, the “GSK3368715-related Grade 3 AE: Atrial fibrillation” value ([1]; 200 mg (n = 12)) was 1 (8)^g n (%), the “GSK3368715-related Grade 3 AE: Deep vein thrombosis” value ([1]; 200 mg (n = 12)) was 1 (8) n (%) and the “GSK3368715-related Grade 3 AE: Neutrophil count decreased” value ([1]; 200 mg (n = 12)) was 0 n (%). The “GSK3368715-related Grade 4 AE: Lymphocyte count decreased” value ([1]; 200 mg (n = 12)) was 1 (8)^b n (%), the “GSK3368715-related Grade 4 AE: Platelet count decreased” value ([1]; 200 mg (n = 12)) was 1 (8)^b,g n (%) and the “Thromboembolic event grade: Pulmonary embolism” value ([1]; 200 mg, patient with epithelioid hemangioendothelioma) was 3. For the same molecule, the “Thromboembolic event grade: Pulmonary embolism” value ([1]; 200 mg, patient with mucoepidermoid carcinoma of parotid) was 3, the “Thromboembolic event grade: Pulmonary embolism” value ([1]; 200 mg, patient with pancreas adenocarcinoma mucinous, fatal) was 5 and the “Participants with grade 2 portal vein thrombosis” value ([1]; 50-mg dose group) was 1. For the same molecule, the “Dose-limiting toxicities (DLTs)” value ([1]; 100-mg dose group) was “no DLTs”, the “Patients with grade 3 decrease in neutrophil count leading to dose reduction” value ([1]; 100-mg dose group) was 1 patient and the “Pulmonary embolisms reported (1 grade 2, 1 grade 3)” value ([1]; 100-mg dose group) was 2. For the same molecule, the “Grade 3 aortic thrombosis events” value ([1]; 200-mg dose group) was 1, the “Grade 3 deep vein thrombosis events” value ([1]; 200-mg dose group) was 1 and the “Grade 3 portal vein thrombosis events” value ([1]; 200-mg dose group) was 2. The “Grade 3 pulmonary embolism events” value ([1]; 200-mg dose group) was 4, the “Patients with grade 3 aortic thrombosis” value ([1]; 200-mg dose group) was 1 patient and the “Patients with grade 3 atrial fibrillation” value ([1]; 200-mg dose group) was 1 patient. The “Patients with grade 3 deep vein thrombosis” value ([1]; 200-mg dose group) was 1 patient, the “Patients with grade 4 decrease in lymphocyte count” value ([1]; 200-mg dose group) was 1 patient and the “Patients with grade 4 decrease in platelet count” value ([1]; 200-mg dose group) was 2 patients. For the same molecule, the “Patients with dose-limiting toxicities (DLTs)” value ([1]; 200-mg dose group (n = 12), aortic thrombosis, atrial fibrillation, decrease in platelet count) was 25%, the “Fatal (grade 5) SAEs” value ([1]; 200-mg dose group, PE and intracranial hemorrhage) was 2 and the “AE: Anemia” value ([1]; Total (N = 31)) was 9 [29%] n (%) and 9 (29) n (%). The “AE: Diarrhea” value ([1]; Total (N = 31)) was 7 (23) n (%), the “AE: Dyspnea” value ([1]; Total (N = 31)) was 4 (13) n (%) and the “AE: Fatigue” value ([1]; Total (N = 31)) was 8 [26%] n (%) and 8 (26) n (%). The “AE: Nausea” value ([1]; Total (N = 31)) was 9 [29%] n (%) and 9 (29) n (%), the “AE: Neutrophil count decreased” value ([1]; Total (N = 31)) was 4 (13) n (%) and the “AE: Pyrexia” value ([1]; Total (N = 31)) was 6 (19) n (%). For the same molecule, the “AE: Vomiting” value ([1]; Total (N = 31)) was 7 (23) n (%), the “Any AE (all AEs and all grades)” value ([1]; Total (N = 31)) was 30 [97%] n (%) and 30 (97) n (%) and the “GSK3368715-related AEs by maximum grade: Grade 3” value ([1]; Total (N = 31)) was 4 (13) n (%). For the same molecule, the “GSK3368715-related AEs by maximum grade: Grade 4” value ([1]; Total (N = 31)) was 2 (6) n (%), the “Number of grade 3 TEEs” value ([1]; across dose groups (abstract)) was 8 and the “Patients experiencing thromboembolic events (TEEs)” value ([1]; across dose groups, N = 31, 95% confidence interval 14–48%) was 29%. The “Number of thromboembolic events (TEEs)” value ([1]; across dose groups, in 9 participants) was 12, the “Changes from baseline for clinical chemistry, hematology, urinalysis, or echocardiograms (ECGs)” value ([1]; all dose groups) was “No clinically significant trends” and the “Patients who discontinued due to a DLT” value ([1]; all dose groups, N = 31) was 3. For the same molecule, the “Patients who discontinued due to an AE” value ([1]; all dose groups, N = 31) was 5 patients, the “Patients with ≥1 grade 3 or grade 4 treatment emergent AEs” value ([1]; all dose groups, N = 31) was 52% and the “Patients with ≥1 serious AE (SAE)” value ([1]; all dose groups, N = 31) was 39%. The “Safety margin for the steady state AUC” value [2] was 16 fold, the “Safety margin for the steady state Cmax” value [2] was 33 fold and the “Cell lines with cytotoxic responses” value [3] was 56%.
